“And” between values parts separate entries of the source, which are not always exact repeats. Equal entries are not always repeated.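 Each compound was tested at five concentrations against cells in 96-well plates for 48 hours. The concentration for 50% growth inhibition is given as GI50. TGI: total growth inhibition.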
Assays:
Assay in all cases: NCI-60 cell line screen, 48 h
RXF 393 renal = test system: RXF 393 renal
IGROV1 ovarian = test system: IGROV1 ovarian
HOP-92 NSCLC = test system: HOP-92 NSCLC
CCRF-CEM leukemia = test system: CCRF-CEM leukemia
HS 578T breast = test system: HS 578T breast
COLO 205 colon = test system: COLO 205 colon
KM12 colon = test system: KM12 colon
UO-31 renal = test system: UO-31 renal
OVCAR-3 ovarian = test system: OVCAR-3 ovarian
SN12C renal = test system: SN12C renal

Row | Structure (SMILES) | GI50 (RXF 393 renal) | TGI (RXF 393 renal) | GI50 (IGROV1 ovarian) [µM] | TGI (IGROV1 ovarian) | GI50 (HOP-92 NSCLC) [µM] | TGI (HOP-92 NSCLC) | GI50 (CCRF-CEM leukemia) [µM] | TGI (CCRF-CEM leukemia) | GI50 (HS 578T breast) [µM] | TGI (HS 578T breast) [µM] | GI50 (COLO 205 colon) [µM] | TGI (COLO 205 colon) [µM] | GI50 (KM12 colon) | TGI (KM12 colon) [µM] | GI50 (UO-31 renal) | TGI (UO-31 renal) [µM] | GI50 (OVCAR-3 ovarian) [µM] | TGI (OVCAR-3 ovarian) | GI50 (SN12C renal) | TGI (SN12C renal) [µM]
1 | Cc1ncc(C(=O)Nc2ccc(CN3CCN(C)CC3)c(C(F)(F)F)c2)cc1C#Cc1c(N)ncc2ccc(C#N)cc12 | 0.327 µM | 1.29 µM | 0.111 | 4 µM | 0.075 | 1.25 µM | 1.41 | 16.5 µM | 0.572 | 4.93 | 0.059 | 8.05 | 0.005 µM | 2.09 | 1.26 µM | 4.99 | 1.57 | 8.54 µM | 1.16 µM | 17.9
2 | CCCCc1ccc2nc(NC(=O)OC)[nH]c2c1 | 0.0929 µM | 20.1 µM | 0.101 | > 78.7 µM | 0.697 | > 63 µM | 0.0342 |  | 0.0266 | 0.649 | 0.038 | 0.37 | 0.0337 µM | 1.3 | 12.1 µM | > 100 | 0.0228 | 0.0502 µM | 0.0832 µM | > 60.4
3 | C1=C[C@@H]2c3ccc4cnccc4c3NC[C@@H]2C1 |  | > 100 µM |  | > 100 µM |  | > 100 µM |  | > 100 µM |  | > 100 |  | > 100 |  | > 100 |  | > 100 |  | > 100 µM |  | > 100
4 | Cc1nc2c(cnn2-c2ccnc3c(C(F)(F)F)cccc23)c(=O)o1 | > 100 µM | > 100 µM | > 100 | > 100 µM | > 100 | > 100 µM | > 100 | > 100 µM | > 100 | > 100 | > 100 | > 100 | > 100 µM | > 100 | > 100 µM | > 100 | > 100 | > 100 µM | > 100 µM | > 100
5 | COC1CC(OC2OC(CO)C(O)C(O)C2O)/C(=C\C#N)C(O)C1OC (stereo not drawn) |  | > 100 µM |  | > 100 µM |  | > 100 µM |  | > 100 µM |  | > 100 |  | > 100 |  | > 100 |  | > 100 |  | > 100 µM |  | > 100
6 | C=C1C(=O)O[C@@H]2[C@@H]3O[C@@](C)(CC/C=C(\C)CCC[C@@H]2C)[C@H](O)C[C@@H]13 | 1.79 µM | 3.58 µM | 2.06 | 5.78 µM | 1.7 | 4.58 µM | 3.01 | 21.3 µM | 11.4 | > 100 | 2.06 | 4.21 |  | 24.6 | 1.4 µM | 2.93 | 1.7 | 3.34 µM | 2.61 µM | 10.1
7 | COc1cc(-c2cc(-c3ccc(N(C)C)cc3)nc(N3CCC(O)CC3)c2C#N)cc(OC)c1OC | 0.177 µM | 3.27 µM | 0.555 | 38.4 µM | 0.182 | 0.788 µM | 0.598 | > 100 µM | 5.66 | > 100 | 0.532 | 3.42 | 0.579 µM | 4 | 0.349 µM | 3.34 | 1.46 | 3.97 µM | 0.689 µM | 6.44
8 | Cc1cc(Cl)n2c(nc3ccccc32)c1C#N | 0.854 µM | 2.66 µM | 0.414 | 1.82 µM | 0.494 | 1.62 µM | 0.0485 |  | 1.02 | 23.4 | 0.296 | 0.803 | 0.341 µM | 1.44 | 0.333 µM | 1.68 | 0.583 | 1.86 µM | 0.499 µM | 8.33
9 | COc1ccc(C2SC(N)=Nc3c2c(C)nn3C(=O)c2ccncc2)cc1 (stereo not drawn) |  | > 100 µM |  | > 100 µM |  | > 100 µM |  | > 100 µM |  | > 100 |  | > 100 |  | > 100 |  | > 100 |  | > 100 µM |  | > 100
10 | Cc1cc(O)c2c(c1)C[C@@H](O)C1=C2C(=O)c2c(O)ccc(OC3CC(O)C(OC4CC(OC5CCC(OC6CC(O)C(OC7CC(OC8CCC(O)C(C)O8)C(O)C(C)O7)C(C)O6)C(C)O5)C(O)C(C)O4)C(C)O3)c2C1=O (stereo partly drawn) | 0.302 µM and 0.29 µM | 0.108 µM and 0.535 µM and 0.751 µM | 1.14 | 0.344 µM and 2.47 µM | 0.3 | 0.316 µM and 0.684 µM | 0.0386 | 0.255 µM and 0.266 µM | 1.59 |  | 0.539 |  | 1.78 µM and 1.11 µM |  | 1.39 µM and 1.3 µM |  | 0.223 | 0.138 µM and 0.765 µM | 0.307 µM and 1.94 µM | 
11 | Clc1ccc(Cl)c(N/N=C\c2c[nH]c3ccccc23)c1 | 10.3 µM | 24.8 µM | 0.0611 | 0.623 µM | 1.13 | 8.37 µM | 0.107 | 11.7 µM | 3.89 | 23.1 | 14 | 30.4 | 7.45 µM | 26.3 | 3.7 µM | 18.4 | 11.4 | 26.1 µM | 7.15 µM | 22.3
12 | COc1ccc(C(=O)/C=C/c2ccc(Cl)cc2)cc1S(N)(=O)=O | 1.98 µM | 3.97 µM | 2.67 | 8.34 µM | 2.14 | 5.78 µM | 3.35 | 9.35 µM | 3.28 | 18.4 | 2.03 | 4.84 | 1.73 µM | 3.78 | 1.89 µM | 5.76 | 2.04 | 4.45 µM | 2.72 µM | 8.4
13 | C=C1C(=O)OC(CCCCCCCC)C1C(=O)O (stereo not drawn) | 10.7 µM | 23.2 µM | 21.8 | 48.3 µM | 12.1 | 25.4 µM | 5.49 | 38.7 µM | 17.3 | > 86.6 | 18.2 | 33.7 | 18.3 µM | 34.4 | 11.7 µM | 25.6 | 7.66 | 19.5 µM | 14.3 µM | 28.5
14 | NC(=O)C/C=C/CC(N)=O |  | > 100 µM |  | > 100 µM |  | > 100 µM |  | > 100 µM |  | > 100 |  | > 100 |  | > 100 |  | > 100 |  | > 100 µM |  | > 100
15 | O=C(Nc1ccc(Cl)c(Cl)c1)Nc1ccc(Cl)c([N+](=O)[O-])c1 | 2.95 µM | 9.29 µM | 1.61 | 6.4 µM | 0.66 | 2.07 µM | 1.12 | > 25 µM | 3.65 | 16.1 | 1.12 | 4.9 | 1.07 µM | 4.38 | 0.83 µM | 2.92 | 0.889 | 3.66 µM | 1.04 µM | 3.94
16 | N#Cc1c(N)nn(C(=O)c2ccc(NC(=O)c3ccccn3)cc2)c1-c1ccc(Cl)cc1 | 3.11 µM | 24.5 µM | 2.63 | 16.8 µM | 2.31 | 9.5 µM | 8.86 | > 100 µM | 2.89 | > 100 |  |  |  |  | 1.79 µM | 5.27 | 3.9 | 24.3 µM | 6.42 µM | > 100
17 | Cc1ccc(CCC(=O)Nc2ncc(Cc3cc(Cl)ccc3Cl)s2)o1 | 0.256 µM | 1.75 µM | 0.334 | 20.8 µM | 2.33 | > 45.3 µM | 0.197 | > 100 µM | 0.289 | 7.2 | 0.194 | 0.658 | 0.0966 µM | > 36.3 | 0.594 µM | 6.43 | 0.172 | 1.36 µM | 0.489 µM | 11.1
18 | [O-][n+]1onc2c3nn(-c4ccccc4)nc3ccc21 |  | > 100 µM |  | > 100 µM |  | > 100 µM |  | > 100 µM |  | > 88.6 |  | > 100 |  | 48.5 |  | > 100 |  | 72 µM |  | > 100
19 | COc1ccc(CN2CCc3c(Cl)nc(N)nc3C2=O)c(OC)c1 | 22.7 µM | 52.9 µM | 7.56 | 26.9 µM | 14.5 | 36 µM | 17 | 56.6 µM | 19.2 | 50.5 | 16.3 | 30.6 | 14.4 µM | 28.4 | 14 µM | 43.8 | 15.4 | 29.8 µM | 14.9 µM | 31.5
20 | CC(=O)O[C@@H]1C=CC(=O)C2(CC(=O)O[C@@H]2/C=C(\C)CCC=C(C)C)C1 (stereo partly drawn) | 0.185 µM | 0.962 µM | 0.965 | 2.47 µM | 1.59 | 3.94 µM | 0.163 | 0.543 µM | 2.54 | > 23.4 | 2.24 | 10.3 | 1.3 µM | 4.16 | 1.58 µM | 3.59 | 0.435 | 1.6 µM | 0.997 µM | 2.27
21 | C#Cc1cccc(NC(=O)Nc2ccccc2NC(=O)CCl)c1 | 12.1 µM | 26.1 µM | 13.6 | 28 µM | 14.8 | 44 µM | 20.8 | > 82.5 µM | 17.1 | 56.1 | 29 | > 82.5 | 14.2 µM | 26.5 | 11.1 µM | 21.6 | 13.5 | 25.5 µM | 15.1 µM | 33.5

— PubChem BioAssay (NCI)
